Measurements published in patent US20260083722A1, “BIFUNCTIONAL DEGRADERS COMPRISING ELECTROPHILIC PROTACS THAT ENGAGE DCAF1 AND PHARMACEUTICAL COMPOSITIONS COMPRISING THE SAME” (THE SCRIPPS RESEARCH INSTITUTE, priority 2022, published 2026).

Biological target: T1, recombinant DCAF1-WT (a.a.'s 1046-1396) (Homo sapiens, UniProt Q9Y4B6)
T1 construct: form of DCAF1 containing the WD40 domain (amino acids (a.a.'s) 1046-1396); made in house
Assay: gel-ABPP with recombinant purified DCAF1-WT doped into HEK293T cell proteome
Assay type: binding
Details: for inhibition of MY-11B probe reactivity with recombinant DCAF1: 2 h, then MY-11B 25 μM 1 h, YT41S and YT47S at single concentration 100 μM; for plateau of blockade of MY-11B labeling: at 20 µM test concentrations; for gel-shift of recombinant DCAF1 by Coomassie blue staining: in the presence of compound
Text: FIG. 2 that azetidine acrylamides stereo- and site-selectively engage recombinant DCAF1_C1113. (A) Domain map of DCAF1 with the region used for recombinant protein studies marked in a bracket (a.a.'s 1046-1396) and C1113 highlighted in red. (B) Crystal structure of a DCAF1-Vpx complex (pdb: 5AJA). DCAF1 (a.a.'s 1046-1396) is shown in cyan, Vpx is shown in yellow, and C1113, which is located at the DCAF1-Vpx interface is shown in red. (C) Structures of alkyne-modified azetidine acrylamides MY-11A (5) and MY-11B (6). (D) Gel-ABPP showing the concentration-dependent reactivity of MY-11A and MY-11B (1 h) reactivity with recombinant, purified DCAF1-WT or the DCAF1-C1113A mutant (0.06 μg/μL of DCAF1 protein per sample) doped into HEK293T cell proteome (1 μg/μL). MY-11A/B labeling of proteins was visualized by CuAAC conjugation to an azide-rhodamine tag followed by SDS-PAGE and in-gel fluorescence scanning. Results are from a single experiment representative of two independent experiments. (E) Gel-ABPP showing the concentration-dependent effects of MY-1A and MY-1B on MY-11B reactivity with DCAF1-WT. Samples were treated with MY-1A/B for 2 h, followed by MY-11B (25 μM, 1 h) and analyzed as described in (D). Left, quantification of data presented as mean values±SEM from two independent experiments. Right, representative gel-ABPP results. (D, E) Lower images are Coomassie blue-stained gels corresponding to ABPP gels shown in upper images.
(A) Structures of candidate electrophilic PROTACs YT41R (7), YT41S (8), YT47R (9), and YT47S (10). (B) Gel-ABPP showing the concentration-dependent effects of YT41R and YT47R on MY-11B reactivity with DCAF1-WT protein (0.06 μg/μL of DCAF1 protein per sample) doped into HEK293T cell proteome (1 μg/μL). Also shown are the effects of YT41S and YT47S tested at a single concentration (100 μM). Samples were treated with heterobifunctional compounds for 2 h, followed by MY-11B (25 μM, 1 h) and analyzed as described in FIG. 2D. Left, representative gel-ABPP results. Lower image is Coomassie blue-stained gel corresponding to ABPP gel shown in upper image. Right, quantification of data presented as mean values±SEM from two independent experiments.
DCAF1 is a multi-domain substrate receptor for CRL4 ligases (FIG. 2A) that has diverse physiological and disease functions, including being co-opted by the HIV-2 virus to promote degradation of the antiviral host protein SAMHD1^27-28. […] We verified the stereo- and site-selective engagement of DCAF1_C1113 by azetidine acrylamides using alkynylated analogues of MY-1A and MY-1B (MY-11A (5) and MY-11B (6), respectively; FIG. 2C). For these experiments, we doped into HEK293T cell lysates a recombinantly expressed and purified form of DCAF1 containing the WD40 domain (amino acids (a.a.'s) 1046-1396), in complex with the CRL4 adaptor protein DDB1^31, and exposed these samples to varying concentrations of MY-11A or MY-11B. After 1 h, we assessed MY-11A and MY-11B engagement of DCAF1 by copper-catalyzed azide-alkyne cycloaddition (CuAAC)^32 with an azide-rhodamine reporter tag followed by SDS-PAGE and in-gel fluorescence scanning^33. […] We used gel-ABPP to quantify an in vitro target engagement value (TE50) of approximately 25 μM (95% C.I.=13-38 μM) for MY-1B labeling of DCAF1 (FIG. 2E, left).

T1 sequence (Q9Y4B6 1046-1396): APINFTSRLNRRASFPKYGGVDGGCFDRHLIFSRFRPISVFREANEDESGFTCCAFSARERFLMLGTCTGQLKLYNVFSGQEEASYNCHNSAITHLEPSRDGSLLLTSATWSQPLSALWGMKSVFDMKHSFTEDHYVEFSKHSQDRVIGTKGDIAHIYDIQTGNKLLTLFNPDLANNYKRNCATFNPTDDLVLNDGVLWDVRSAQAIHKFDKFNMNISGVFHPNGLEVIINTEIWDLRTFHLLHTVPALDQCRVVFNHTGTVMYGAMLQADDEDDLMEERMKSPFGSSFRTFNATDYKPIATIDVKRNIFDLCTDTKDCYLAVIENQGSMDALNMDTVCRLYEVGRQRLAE
T1 sequence (Q16531 whole entry partner, the tested form may be a part): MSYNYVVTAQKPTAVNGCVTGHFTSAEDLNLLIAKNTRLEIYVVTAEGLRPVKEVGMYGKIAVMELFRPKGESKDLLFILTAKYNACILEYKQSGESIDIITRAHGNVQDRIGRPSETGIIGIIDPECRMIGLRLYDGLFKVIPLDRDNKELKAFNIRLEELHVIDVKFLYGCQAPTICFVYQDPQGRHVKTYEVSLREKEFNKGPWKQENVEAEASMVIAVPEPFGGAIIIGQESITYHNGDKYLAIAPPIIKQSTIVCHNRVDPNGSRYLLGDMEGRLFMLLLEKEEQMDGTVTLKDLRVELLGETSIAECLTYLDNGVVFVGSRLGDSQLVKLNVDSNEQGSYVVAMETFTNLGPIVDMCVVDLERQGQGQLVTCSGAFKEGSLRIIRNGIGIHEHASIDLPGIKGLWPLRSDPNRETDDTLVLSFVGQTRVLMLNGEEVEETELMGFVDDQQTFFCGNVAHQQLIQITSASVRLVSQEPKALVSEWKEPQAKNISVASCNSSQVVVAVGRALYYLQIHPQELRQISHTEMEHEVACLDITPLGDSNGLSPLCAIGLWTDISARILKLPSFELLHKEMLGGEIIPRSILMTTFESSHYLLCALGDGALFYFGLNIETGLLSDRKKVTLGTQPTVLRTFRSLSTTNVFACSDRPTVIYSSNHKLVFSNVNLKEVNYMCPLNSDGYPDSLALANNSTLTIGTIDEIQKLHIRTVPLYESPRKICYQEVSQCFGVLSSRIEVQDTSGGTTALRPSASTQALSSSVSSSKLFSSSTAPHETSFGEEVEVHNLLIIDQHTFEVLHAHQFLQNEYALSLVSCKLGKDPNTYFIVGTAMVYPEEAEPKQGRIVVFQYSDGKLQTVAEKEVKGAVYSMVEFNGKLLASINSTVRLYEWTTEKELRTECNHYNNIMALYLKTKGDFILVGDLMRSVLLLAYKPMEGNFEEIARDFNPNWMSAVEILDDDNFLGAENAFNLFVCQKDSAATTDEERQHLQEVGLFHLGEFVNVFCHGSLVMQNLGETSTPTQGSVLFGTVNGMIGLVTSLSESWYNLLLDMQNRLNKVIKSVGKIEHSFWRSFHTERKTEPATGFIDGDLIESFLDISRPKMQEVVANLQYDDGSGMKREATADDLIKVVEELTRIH

SMILES | inhibition of MY-11B probe reactivity with recombinant DCAF1 | plateau of blockade of MY-11B labeling [%] | gel-shift of recombinant DCAF1 by Coomassie blue staining
C=CC(=O)C1C[C@H](c2ccc(C(=O)NCCOCCOCCNC(=O)COc3cccc([C@@H](CCc4ccc(OC)c(OC)c4)OC(=O)[C@@H]4CCCCN4C(=O)C(=O)C(C)(C)CC)c3)cc2)[C@@H]1C(=O)Nc1cccc2cccnc12 (stereo partly drawn) [YT41R] | concentration-dependent inhibition | ~75 | apparent gel-shift
C=CC(=O)N1C[C@H](c2ccc(C(=O)NCCOCCOCCOCCNC(=O)COc3cccc([C@@H](CCc4ccc(OC)c(OC)c4)OC(=O)[C@@H]4CCCCN4C(=O)C(=O)C(C)(C)CC)c3)cc2)[C@@H]1C(=O)Nc1cccc2cccnc12 [YT47R] | concentration-dependent inhibition | ~75 | apparent gel-shift
